Experimental data taken from patent US7897765B2, “Therapeutic compounds and uses thereof” (Elixir Pharmaceuticals, Inc., priority 2003, dated 2011).

Target: GHS-R (Homo sapiens, UniProt Q92847)
Test: cell based assay of GHS-R antagonist/agonist activity
Design: key: A refers to a compound having antagonist activity with Ki<100 nM in a cell based assay; B refers to a compound having agonist activity with EC50<100 nM in a cell based assay; C refers to a compound having antagonist activity of Ki>100 nM and <1500 nM in a cell based assay; D refers to a compound having antagonist activity with Ki, <100 nM and agonist activity with EC50<100 nM in a cell-based assay; E refers to other exemplary compounds
Conditions: GHS-R antagonist Ki and/or agonist EC50 class
Description: Cell-Based Activity Assays. For example, the ability of the compound to modulate accumulation of a second messenger signaling component downstream of GHS-R can be evaluated. For example, inositol phosphates (IP), as a result of Gq signaling in a mammalian cell, e.g., a Cos-7 cells. Other tissue culture cells, Xenopus oocytes, and primary cells can also be used.
Phosphatidylinositol turnover assay. One day after transfection COS-7 cells are incubated for 24 hours with 5 μCi of [^3H]-myo-inositol in 1 ml medium supplemented with 10% fetal calf serum, 2 mM glutamine and 0.01 mg/ml gentamicin per well. Cells are then washed twice in buffer, 20 mM HEPES, pH 7.4, supplemented with 140 mM NaCl, 5 mM KCl, 1 mM MgSO4, 1 mM CaCl2, mM glucose, 0.05% (w/v) bovine serum; and incubated in 0.5 ml buffer supplemented with 10 mM LiCl at 37° C. for 30 min. For some assays, it is also useful to incubate the cells with adenosine deaminase ADA (200 U/mg, Boehringer Mannheim, Germany) for 30 min in a concentration of 1 U/ml.
After incubation with the compound of interest for 45 min at 37° C., cells are extracted with 10% ice-cold perchloric acid and placed on ice for 30 min. The resulting supernatants are neutralized with KOH in HEPES buffer, and [^3H]-inositol phosphate is purified on Bio-Rad AG 1-X8 anion exchange resin as described. Assays can be run in duplicate, triplicate, etc.
Other second messenger assays. Another second messenger that can be evaluated is Ca^2+. Ca^2+ mobilization can be evaluated using a calcium sensitive detector, such as aequorin protein or a dye, e.g., FURA-2. In an exemplary assay, calcium mobilization is evaluated in a recombinant cell that expresses GHS-R and aequorin.
Gene expression assay. HEK293 cells (30 000 cells/well) seeded in 96-well plates are transiently transfected with a mixture of pFA2-CREB and pFR-Luc reporter plasmid (PathDetect™ CREB trans-Reporting System, Stratagene) and nucleic acid encoding GHS. One day after transfection, cells are treated with the compound of interest in an assay volume of 100 μl medium for 5 hrs. After treatment, cells are cultured in low serum (2.5%). After the incubation period, the assay is ended by washing the cells twice with PBS and adding 100 μl luciferase assay reagent (LucLite™, Packard Bioscience). Luminescence is measured (e.g., as relative light units (RLU)) using in a luminometer such as the TopCounter™ (Packard Bioscience) for 5 sec.
IC50 and EC50 values can be determined by nonlinear regression, e.g., using the Prism 3.0 software (GraphPad Software, San Diego).

Chain of GHS-R (Q92847 whole entry, species assumed): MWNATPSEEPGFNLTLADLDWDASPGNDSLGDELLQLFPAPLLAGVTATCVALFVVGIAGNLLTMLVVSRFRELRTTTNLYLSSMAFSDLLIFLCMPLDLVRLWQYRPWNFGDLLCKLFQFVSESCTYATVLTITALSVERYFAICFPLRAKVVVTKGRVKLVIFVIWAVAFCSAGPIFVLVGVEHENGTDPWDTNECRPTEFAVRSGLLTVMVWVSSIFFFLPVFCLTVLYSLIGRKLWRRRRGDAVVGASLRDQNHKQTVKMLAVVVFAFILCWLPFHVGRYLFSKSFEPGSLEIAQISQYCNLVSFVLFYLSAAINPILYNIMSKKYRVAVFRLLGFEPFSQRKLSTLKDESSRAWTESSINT

Row | Activity | Compound
1 | E | CC(C)(C)OC(=O)N[C@H](COCc1ccccc1)C(=O)N1CCC2(CC1)CN(S(=O)(=O)CC(F)(F)F)c1ccccc12 [Compound 64]
2 | E | CN1CC=C(C(=O)N[C@H](COCc2ccccc2)C(=O)N2CCC3(CC2)CN(S(C)(=O)=O)c2ccccc23)CC1 [Compound 99]
3 | E | COC(=O)CC(=O)N1CC2(CCN(C(=O)[C@@H](COCc3ccccc3)NC(=O)OC(C)(C)C)CC2)c2ccccc21 [Compound 60]
4 | E | CN([C@H](COCc1ccccc1)C(=O)N1CCC2(CC1)CN(S(C)(=O)=O)c1ccccc12)S(=O)(=O)CCCCl [Compound 160]
5 | E | CCN(CC)CC(=O)N[C@H](COCc1ccccc1)C(=O)N1CCC2(CC1)CN(S(C)(=O)=O)c1ccccc12 [Compound 90]
6 | E | CN(C)CC(=O)N[C@H](COCc1ccccc1)C(=O)N1CCC2(CC1)CNc1ccccc12 [Compound 68]
7 | E | CS(=O)(=O)N1CC2(CCN(C(=O)[C@@H](COCc3ccccc3)NS(=O)(=O)CCN3CCOCC3)CC2)c2ccccc21 [Compound 144]
8 | E | CN1CCC[C@H]1CC(=O)N[C@H](COCc1ccccc1)C(=O)N1CCC2(CC1)CN(S(C)(=O)=O)c1ccccc12 [Compound 113]
9 | E | CC(=O)N[C@H](COCc1ccccc1)C(=O)N1CCC2(CC1)CN(S(C)(=O)=O)c1ccccc12 [Compound 51]
10 | E | CS(=O)(=O)N1CC2(CCN(C(=O)[C@@H](COCc3ccccc3)NC(=O)C3(N)CC3)CC2)c2ccccc21 [Compound 120]
11 | E | CN(C)C1(C(=O)N[C@H](COCc2ccccc2)C(=O)N2CCC3(CC2)CN(S(C)(=O)=O)c2ccccc23)CCCC1 [Compound 119]
12 | E | CC1=NCCC(C(=O)N[C@H](COCc2ccccc2)C(=O)N2CCC3(CC2)CN(S(C)(=O)=O)c2ccccc23)N1 (stereo partly drawn) [Compound 112]
13 | E | CC(C)(C)OC(=O)N1CC=C(C(=O)N[C@H](COCc2ccccc2)C(=O)N2CCC3(CC2)CN(S(C)(=O)=O)c2ccccc23)CC1 [Compound 98]
14 | E | COCCCS(=O)(=O)N[C@H](COCc1ccccc1)C(=O)N1CCC2(CC1)CN(S(C)(=O)=O)c1ccccc12 [Compound 161]
15 | E | CC(C)(C)OC(=O)N[C@H](COCc1ccccc1)C(=O)N1CCC2(CC1)CN(C(=O)CO)c1ccccc12 [Compound 61]
16 | E | CS(=O)(=O)N1CC2(CCN(C(=O)C(COCc3ccccc3)NCC3CCNCC3)CC2)c2ccccc21 (stereo not drawn) [Compound 104]
17 | E | CC(=O)OCC(=O)N1CC2(CCN(C(=O)[C@@H](COCc3ccccc3)NC(=O)OC(C)(C)C)CC2)c2ccccc21 [Compound 59]
18 | E | CS(=O)(=O)N1CC2(CCN(C(=O)[C@@H](COCc3ccccc3)NC(=O)[C@@H]3CCC[C@H](CN)C3)CC2)c2ccccc21 [Compound 114]
19 | E | CN1CCC(N[C@H](COCc2ccccc2)C(=O)N2CCC3(CC2)CN(S(C)(=O)=O)c2ccccc23)CC1 [Compound 84]
20 | E | CC(OCc1ccccc1)[C@@H](CC(=O)N1CCC2(CC1)CN(S(C)(=O)=O)c1ccccc12)NC(=O)C1CCN(C)CC1 (stereo partly drawn) [Compound 142]
21 | E | CN(C)CC(=O)N[C@H](COCc1ccccc1)C(=O)N1CCC2(CC1)CN(C(=O)CO)c1ccccc12 [Compound 75]
22 | E | CC(=O)OCC(=O)N1CC2(CCN(C(=O)[C@@H](COCc3ccccc3)NC(=O)CN(C)C)CC2)c2ccccc21 [Compound 71]
23 | E | CS(=O)(=O)N1CC2(CCN(C(=O)[C@@H](COCc3ccccc3)NC(=O)NCCN3CCOCC3)CC2)c2ccccc21 [Compound 92]
24 | E | COc1cccc(NC(=O)N2CC3(CCN(C(=O)[C@@H](COCc4ccccc4)NC(=O)CN(C)C)CC3)c3ccccc32)c1 [Compound 69]

Row | Compound | Activity
25 | CCN(C)CCS(=O)(=O)N[C@H](COCc1ccccc1)C(=O)N1CCC2(CC1)CN(S(C)(=O)=O)c1ccccc12 [Compound 35] | C (C refers to a compound having antagonist activity of Ki>100 nM and <1500 nM in a cell based assay)
26 | COCCN1CCC(C(=O)N[C@H](COCc2ccccc2)C(=O)N2CCC3(CC2)CN(S(C)(=O)=O)c2ccccc23)CC1 [Compound 33] | C (C refers to a compound having antagonist activity of Ki>100 nM and <1500 nM in a cell based assay)
27 | CS(=O)(=O)N1CC2(CCN(C(=O)[C@@H](COCc3ccccc3)NS(=O)(=O)CCCCl)CC2)c2ccccc21 [Compound 153] | A (A refers to a compound having antagonist activity with Ki<100 nM in a cell based assay)
28 | CS(=O)(=O)N1CC2(CCN(C(=O)[C@@H](COCc3ccccc3)NC(=O)NCCO)CC2)c2ccccc21 [Compound 41] | C (C refers to a compound having antagonist activity of Ki>100 nM and <1500 nM in a cell based assay)
29 | CN(C)CC(=O)N[C@H](COCc1ccccc1)C(=O)N1CCC2(C=Cc3ccccc32)CC1 [Compound 29] | C (C refers to a compound having antagonist activity of Ki>100 nM and <1500 nM in a cell based assay)
30 | CN(C)Cc1cccc(C(=O)N[C@H](COCc2ccccc2)C(=O)N2CCC3(CC2)CN(S(C)(=O)=O)c2ccccc23)c1 [Compound 6] | A (A refers to a compound having antagonist activity with Ki<100 nM in a cell based assay)
31 | CC(C)(C)NCCCS(=O)(=O)N[C@H](COCc1ccccc1)C(=O)N1CCC2(CC1)CN(S(C)(=O)=O)c1ccccc12 [Compound 150] | A (A refers to a compound having antagonist activity with Ki<100 nM in a cell based assay)
32 | CN1CCC(C(=O)N[C@H](COCc2ccccc2)C(=O)N2CCC3(C=Cc4ccccc43)CC2)CC1 [Compound 3] | A (A refers to a compound having antagonist activity with Ki<100 nM in a cell based assay)
33 | CN1C2CCC1CC(S(=O)(=O)N[C@H](COCc1ccccc1)C(=O)N1CCC3(CC1)CN(S(C)(=O)=O)c1ccccc13)C2 (stereo partly drawn) [Compound 152] | C (C refers to a compound having antagonist activity of Ki>100 nM and <1500 nM in a cell based assay)
34 | CS(=O)(=O)N1CC2(CCN(C(=O)[C@@H](COCc3ccccc3)NC(=O)C3CCNCC3)CC2)c2ccccc21 [Compound 128] | B (B refers to a compound having agonist activity with EC50<100 nM in a cell based assay)
35 | CS(=O)(=O)N1CC2(CCN(C(=O)[C@@H](COCc3ccccc3)NC(=O)[C@@H]3C=CCN3)CC2)c2ccccc21 [Compound 18] | C (C refers to a compound having antagonist activity of Ki>100 nM and <1500 nM in a cell based assay)
36 | CC(=O)NC(C)(C)C(=O)N[C@H](COCc1ccccc1)C(=O)N1CCC2(CC1)CN(S(C)(=O)=O)c1ccccc12 [Compound 126] | B (B refers to a compound having agonist activity with EC50<100 nM in a cell based assay)
37 | CCN(CC)CCCS(=O)(=O)N[C@H](COCc1ccccc1)C(=O)N1CCC2(CC1)CN(S(C)(=O)=O)c1ccccc12 [Compound 155] | A (A refers to a compound having antagonist activity with Ki<100 nM in a cell based assay)
38 | CC(C)CCN1CCC(C(=O)N[C@H](COCc2ccccc2)C(=O)N2CCC3(CC2)CN(S(C)(=O)=O)c2ccccc23)CC1 [Compound 43] | C (C refers to a compound having antagonist activity of Ki>100 nM and <1500 nM in a cell based assay)
39 | CN1CC=C[C@H]1C(=O)N[C@H](COCc1ccccc1)C(=O)N1CCC2(CC1)CN(S(C)(=O)=O)c1ccccc12 [Compound 11] | A (A refers to a compound having antagonist activity with Ki<100 nM in a cell based assay)
